The values that follow come from patent US10689383B2, “Optionally fused heterocyclyl-substituted derivatives of pyrimidine useful for the treatment of inflammatory, metabolic, oncologic and autoimmune diseases” (NUEVOLUTION A/S, priority 2014, dated 2020).

The target of experiment [1] is T1, yeast Gal4-DNA binding domain fused to the ligand binding domain of human RORγ (Homo sapiens, UniProt P51449).
T1 construct: host or cells: HEK293t
T1 sequence (P51449 269-508 limits assumed): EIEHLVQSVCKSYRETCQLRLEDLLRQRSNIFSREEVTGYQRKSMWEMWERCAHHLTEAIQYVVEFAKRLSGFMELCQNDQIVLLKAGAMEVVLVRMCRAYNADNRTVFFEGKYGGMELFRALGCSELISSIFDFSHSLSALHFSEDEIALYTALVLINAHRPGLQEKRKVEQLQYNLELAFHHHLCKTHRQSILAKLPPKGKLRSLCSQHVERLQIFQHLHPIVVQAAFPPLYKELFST
Kind of experiment: RORγ Reporter Assay (Gal4). It counts as cell-based. Particulars: values given as lower bounds of ranges; for Gal4 activity range @ 0.1 μM (% inhibition): RORγ Reporter Assay (Gal4) at 0.1 μM; for Gal4 activity range @ 1 μM (% inhibition): RORγ Reporter Assay (Gal4) at 1 μM. An outline of the steps: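 HEK293t reporter cells expressing the hybrid, with Gal4-UAS-driven firefly luciferase, treated in triplicate with compound at 1,000 nM and 100 nM (0.1% DMSO) in medium with 10% charcoal-stripped FBS for 24 h at 37 °C. Luminescence read; percent reduction of RLU calculated relative to vehicle.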
(In general: In a reporter assay the amount or activity of a reporter protein is the signal.)

Experiment [2] has as its target T2, human RORγt (Ligand Binding Domain) (Homo sapiens, UniProt P51449).
T2 construct: purchased Crelux (Planegg, Germany) batch no PC5032-1
T2 sequence (P51449 269-508 limits assumed): T1 sequence (P51449 269-508 limits assumed)
Kind of experiment: Fluorescence Polarization (FP) Assay. The conditions noted are these: Fluorescence Polarization (FP) Assay; values given as upper bounds of activity ranges; read-out: FP activity range. An outline of the steps: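 In vitro FP binding assay monitoring ligand binding within the ligand binding pocket. Probe is a TAMRA-labelled RORγt ligand (MW 910 g/mole); DMSO served as negative control.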
(Fluorescence polarisation rises when a labelled molecule tumbles more slowly, as on binding a larger partner.)

With `CC(=O)N1CCC(CNc2ncnc(N3CCC[C@@H]3c3ccc(C(F)(F)F)cc3)c2F)CC1` [Example 191, 1-[4-[[[5-fluoro-6-[(2R)-2-[4-(trifluoromethyl)phenyl]pyrrolidin-1-yl]pyrimidin-4-yl]amino]methyl]-1-piperidyl]ethanone], in experiment [1], the “Gal4 activity range @ 0.1 μM (% inhibition)” value is over 50 % inhibition and the “Gal4 activity range @ 1 μM (% inhibition)” value is given as over 80 % inhibition. In addition, the IC50 in experiment [2] was under 500 nM.
As to `CCc1ccc(C2CCCN2c2ncnc(NCc3ccc(CC(N)=O)cc3)c2F)o1` (stereo not drawn) [Example 316, 2-[4-[[[6-[2-(5-ethyl-2-furyl)pyrrolidin-1-yl]-5-fluoro-pyrimidin-4-yl]amino]methyl]phenyl]acetamide], in experiment [1], the “Gal4 activity range @ 0.1 μM (% inhibition)” value is recorded as over 20 % inhibition and the “Gal4 activity range @ 1 μM (% inhibition)” value was over 80 % inhibition. The IC50 in experiment [2] is under 500 nM.
Regarding `OC1(CNc2ncnc(N3CCC[C@@H]3c3ccc(C(F)(F)F)cc3)c2F)CCCCCC1` [Example 167, 1-[[[5-fluoro-6-[(2R)-2-[4-(trifluoromethyl)phenyl]pyrrolidin-1-yl]pyrimidin-4-yl]amino]methyl]cycloheptanol], the “Gal4 activity range @ 0.1 μM (% inhibition)” value in experiment [1] is over 0 % inhibition. Also, in experiment [2], the IC50 is under 500 nM.
For the molecule `O=S1(=O)CCC(CNc2ncnc(N3CCC[C@@H]3c3ccc(C(F)(F)F)cc3)c2F)CC1` [Example 222, N-[(1,1-dioxothian-4-yl)methyl]-5-fluoro-6-[(2R)-2-[4-(trifluoromethyl)phenyl]pyrrolidin-1-yl]pyrimidin-4-amine], in experiment [1], the “Gal4 activity range @ 0.1 μM (% inhibition)” value is over 20 % inhibition and the “Gal4 activity range @ 1 μM (% inhibition)” value was over 80 % inhibition. Besides, in experiment [2], the IC50 was under 2000 nM.
For `Cc1ccc(CNc2ncnc(N3CC(C)CC3c3ccc(C(F)(F)F)cc3)c2F)cn1` (stereo not drawn) [Example 211, 5-fluoro-N-[(6-methyl-3-pyridyl)methyl]-6-[4-methyl-2-[4-(trifluoromethyl)phenyl]pyrrolidin-1-yl]pyrimidin-4-amine], in experiment [1], the “Gal4 activity range @ 0.1 μM (% inhibition)” value was over 0 % inhibition and the “Gal4 activity range @ 1 μM (% inhibition)” value is reported as over 50 % inhibition. Besides, the IC50 in experiment [2] is under 1000 nM.
In the same order, the values of `COc1ccc(CN(C)c2ncnc(N3CCCC3c3ccc(C(F)(F)F)cc3)c2F)cn1` (stereo not drawn) [Example 116, 5-fluoro-N-[(6-methoxy-3-pyridyl)methyl]-N-methyl-6-[2-[4-(trifluoromethyl)phenyl]pyrrolidin-1-yl]pyrimidin-4-amine] are over 20 % inhibition, over 50 % inhibition and under 1000 nM.
Take `CC(C)(C)C[C@@H](Nc1ncnc(N2CCOCC2c2ccc(C(F)(F)F)cc2)c1F)C(N)=O` (stereo partly drawn) [Example 20, (2R)-2-[[5-fluoro-6-[3-[4-(trifluoromethyl)phenyl]morpholin-4-yl]pyrimidin-4-yl]amino]-4,4-dimethyl-pentanamide]: the “Gal4 activity range @ 1 μM (% inhibition)” value in experiment [1] is given as over 50 % inhibition. Further, the IC50 in experiment [2] was under 2000 nM.
On to `COc1ccnc(CNc2ncnc(N3CCCC3c3ccc(C(F)(F)F)cc3)c2F)c1` (stereo not drawn) [Example 131, 5-fluoro-N-[(4-methoxy-2-pyridyl)methyl]-6-[2-[4-(trifluoromethyl)phenyl]pyrrolidin-1-yl]pyrimidin-4-amine], for which the “Gal4 activity range @ 0.1 μM (% inhibition)” value in experiment [1] was over 20 % inhibition. Besides, the IC50 in experiment [2] was under 2000 nM.
Regarding `OC1CCCCC1CNc1ncnc(N2CCC[C@@H]2c2ccc(C(F)(F)F)cc2)c1F` (stereo partly drawn) [Example 200, 2-[[[5-fluoro-6-[(2R)-2-[4-(trifluoromethyl)phenyl]pyrrolidin-1-yl]pyrimidin-4-yl]amino]methyl]cyclohexanol], in experiment [1], the “Gal4 activity range @ 0.1 μM (% inhibition)” value is given as over 20 % inhibition and the “Gal4 activity range @ 1 μM (% inhibition)” value is listed as over 80 % inhibition. Further, the IC50 in experiment [2] was under 1000 nM.
